In brackets after ≈: the same amount, converted by molar mass.
Key:
Format in all cases: functional
[1] = tested on: Acinetobacter pittii; experiment: Antibacterial activity against Acinetobacter genomosp. 3 isolates by broth micro dilution
[2] = tested on: Acinetobacter pittii; experiment: Antibacterial activity against Acinetobacter genomosp. 3 isolates assessed as percent of resistance isolates by broth micro dilution
[3] = tested on: Acinetobacter pittii; experiment: Antibacterial activity against Pulsotype I Acinetobacter genomosp. 3 isolate 10 containing IMP-1, OXA-58, ADC-18, ISAba1, ISAba3, IS1008, intI1 genetic elements by broth micro dilution
[4] = tested on: Acinetobacter pittii; experiment: Antibacterial activity against Pulsotype I Acinetobacter genomosp. 3 isolate 11 containing IMP-1, OXA-58, ADC-18, ISAba1, ISAba3, IS1008, intI1 genetic elements by broth micro dilution
[5] = tested on: Acinetobacter pittii; experiment: Antibacterial activity against Pulsotype D Acinetobacter genomosp. 3 isolate 18 containing IMP-1, OXA-58, ADC-18, ISAba1, ISAba3, repAcil, IS1008, intI1 genetic elements by broth micro dilution
[6] = tested on: Acinetobacter pittii; experiment: Antibacterial activity against Pulsotype J Acinetobacter genomosp. 3 isolate 15 containing IMP-1, OXA-58, ADC-18, ISAba1, ISAba3, IS1008, intI1 genetic elements by broth micro dilution
[7] = tested on: Acinetobacter pittii; experiment: Antibacterial activity against Pulsotype M Acinetobacter genomosp. 3 isolate 5 containing IMP-1, OXA-58, ADC-43, ISAba2, ISAba3, IS1008, intI1 genetic elements by broth micro dilution
[8] = tested on: Acinetobacter pittii; experiment: Antibacterial activity against Pulsotype F Acinetobacter genomosp. 3 isolate 4 containing IMP-1, OXA-58, ADC-18, ISAba1, ISAba3, IS18, IS1008, intI1 genetic elements by broth micro dilution
[9] = tested on: Acinetobacter pittii; experiment: Antibacterial activity against Pulsotype L Acinetobacter genomosp. 3 isolate 7 containing IMP-1, OXA-58, ADC-18, ISAba1, ISAba3, IS1008, intI1 genetic elements by broth micro dilution
[10] = tested on: Acinetobacter pittii; experiment: Antibacterial activity against Pulsotype B Acinetobacter genomosp. 3 isolate 8 containing IMP-1, OXA-58, ADC-18, ISAba1, ISAba3, IS1008, intI1 genetic elements by broth micro dilution
[11] = tested on: Acinetobacter pittii; experiment: Antibacterial activity against Pulsotype L Acinetobacter genomosp. 3 isolate 2 containing IMP-8, OXA-58, ADC-43, ISAba1, ISAba3, IS1008, intI1 genetic elements by broth micro dilution
[12] = tested on: Acinetobacter pittii; experiment: Antibacterial activity against Pulsotype C Acinetobacter genomosp. 3 isolate 1 containing IMP-1, OXA-58, ADC-18, ISAba1, ISAba3, IS1008, intI1 genetic elements by broth micro dilution
[13] = tested on: Acinetobacter pittii; experiment: Antibacterial activity against Pulsotype K Acinetobacter genomosp. 3 isolate 6 containing IMP-1, OXA-58, ADC-18, ISAba1, ISAba3, IS1008, intI1 genetic elements by broth micro dilution
[14] = tested on: Acinetobacter pittii; experiment: Antibacterial activity against Pulsotype C Acinetobacter genomosp. 3 isolate 1 containing IMP-1, OXA-58, ADC-18, ISAba1, ISAba3, IS1008, intI1 genetic elements by agar dilution method
[15] = tested on: Acinetobacter pittii; experiment: Antibacterial activity against Pulsotype D Acinetobacter genomosp. 3 isolate 18 containing IMP-1, OXA-58, ADC-18, ISAba1, ISAba3, repAcil, IS1008, intI1 genetic elements by agar dilution method
[16] = tested on: Acinetobacter pittii; experiment: Antibacterial activity against Pulsotype I Acinetobacter genomosp. 3 isolate 10 containing IMP-1, OXA-58, ADC-18, ISAba1, ISAba3, IS1008, intI1 genetic elements by agar dilution method
[17] = tested on: Acinetobacter pittii; experiment: Antibacterial activity against Pulsotype K Acinetobacter genomosp. 3 isolate 6 containing IMP-1, OXA-58, ADC-18, ISAba1, ISAba3, IS1008, intI1 genetic elements by agar dilution method
[18] = tested on: Acinetobacter pittii; experiment: Antibacterial activity against Pulsotype F Acinetobacter genomosp. 3 isolate 4 containing IMP-1, OXA-58, ADC-18, ISAba1, ISAba3, IS18, IS1008, intI1 genetic elements by agar dilution method
[19] = tested on: Acinetobacter pittii; experiment: Antibacterial activity against Acinetobacter genomosp. 3 isolates by agar dilution method
[20] = tested on: Acinetobacter pittii; experiment: Antibacterial activity against Pulsotype L Acinetobacter genomosp. 3 isolate 2 containing IMP-8, OXA-58, ADC-43, ISAba1, ISAba3, IS1008, intI1 genetic elements by agar dilution method
[21] = tested on: Acinetobacter pittii; experiment: Antibacterial activity against Acinetobacter genomosp. 3 isolates assessed as percent of resistance isolates by agar dilution method
[22] = tested on: Acinetobacter pittii; experiment: Antibacterial activity against Pulsotype M Acinetobacter genomosp. 3 isolate 5 containing IMP-1, OXA-58, ADC-43, ISAba2, ISAba3, IS1008, intI1 genetic elements by agar dilution method
[23] = tested on: Acinetobacter pittii; experiment: Antibacterial activity against Pulsotype J Acinetobacter genomosp. 3 isolate 15 containing IMP-1, OXA-58, ADC-18, ISAba1, ISAba3, IS1008, intI1 genetic elements by agar dilution method
[24] = tested on: Acinetobacter pittii; experiment: Antibacterial activity against Pulsotype L Acinetobacter genomosp. 3 isolate 7 containing IMP-1, OXA-58, ADC-18, ISAba1, ISAba3, IS1008, intI1 genetic elements by agar dilution method
[25] = tested on: Acinetobacter pittii; experiment: Antibacterial activity against Pulsotype I Acinetobacter genomosp. 3 isolate 11 containing IMP-1, OXA-58, ADC-18, ISAba1, ISAba3, IS1008, intI1 genetic elements by agar dilution method
[26] = tested on: Acinetobacter pittii; experiment: Antibacterial activity against Pulsotype B Acinetobacter genomosp. 3 isolate 8 containing IMP-1, OXA-58, ADC-18, ISAba1, ISAba3, IS1008, intI1 genetic elements by agar dilution method
[27] = tested on: Enterobacteriaceae; experiment: Antibacterial activity against Enterobacteriaceae assessed as resistant breakpoint by CLSI method
[28] = tested on: Enterobacteriaceae; experiment: Antibacterial activity against Enterobacteriaceae assessed as susceptibility breakpoint by CLSI method
[29] = tested on: Enterobacteriaceae; experiment: Antibacterial activity against Enterobacteriaceae assessed as intermediate breakpoint by CLSI method

| Compound | MIC50 [1] [µg/mL] | MIC90 [1] [µg/mL] | Activity [2] [%] | MIC [3] [µg/mL] | MIC [4] [µg/mL] | MIC [5] [µg/mL] | MIC [6] [µg/mL] | MIC [7] [µg/mL] | MIC [8] [µg/mL] | MIC [9] [µg/mL] | MIC [10] [µg/mL] | MIC [11] [µg/mL] | MIC [12] [µg/mL] | MIC [13] [µg/mL] | further results |
| --- | --- | --- | --- | --- | --- | --- | --- | --- | --- | --- | --- | --- | --- | --- | --- |
| NCC[C@H](O)C(=O)N[C@@H]1C[C@H](N)[C@@H](O[C@H]2O[C@H](CN)[C@@H](O)[C@H](O)[C@H]2O)[C@H](O)[C@H]1O[C@H]1O[C@H](CO)[C@@H](O)[C@H](N)[C@H]1O [AMIKACIN] | 32 (≈ 54.6 µM) | ≥ 64 | 52.6 | – | – | – | – | – | – | – | – | – | – | – | – |
| C[C@H]1[C@H](NC(=O)/C(=N\OC(C)(C)C(=O)O)c2csc(N)n2)C(=O)N1S(=O)(=O)O [AZTREONAM] | ≥ 32 | ≥ 32 | 94.7 | > 16 | > 16 | > 16 | > 16 | > 16 | > 16 | > 16 | > 16 | > 16 | > 16 | > 16 | – |
| CO/N=C(\C(=O)N[C@@H]1C(=O)N2C(C(=O)[O-])=C(C[N+]3(C)CCCC3)CS[C@H]12)c1csc(N)n1 [CEFEPIME] | ≥ 32 | ≥ 32 | 63.2 | > 16 | > 16 | > 16 | > 16 | > 16 | > 16 | > 16 | > 16 | > 16 | > 16 | > 16 | – |
| CC(C)(O/N=C(\C(=O)N[C@@H]1C(=O)N2C(C(=O)[O-])=C(C[n+]3ccccc3)CS[C@H]12)c1csc(N)n1)C(=O)O [CEFTAZIDIME] | ≥ 64 | ≥ 64 | 68.4 | > 32 | > 32 | > 32 | > 32 | > 32 | > 32 | > 32 | > 32 | > 32 | > 32 | > 32 | – |
| CO/N=C(\C(=O)N[C@@H]1C(=O)N2C(C(=O)O)=C(CSc3nc(=O)c(O)nn3C)CS[C@H]12)c1csc(N)n1 [CEFTRIAXONE] | ≥ 64 | ≥ 64 | 63.2 | > 32 | > 32 | > 32 | > 32 | > 32 | > 32 | > 32 | > 32 | > 32 | > 32 | > 32 | – |
| O=C(O)c1cn(C2CC2)c2cc(N3CCNCC3)c(F)cc2c1=O [CIPROFLOXACIN] | 0.25 (≈ 0.754 µM) | 2 (≈ 6.04 µM) | 5.3 | – | – | – | – | – | – | – | – | – | – | – | – |
| C[C@@H](O)[C@H]1C(=O)N2C(C(=O)O)=C(SCCNC=N)C[C@H]12 [IMIPENEM ANHYDROUS] | 16 (≈ 53.4 µM) | 32 (≈ 107 µM) | 57.9 | 32 (≈ 107 µM) | 32 (≈ 107 µM) | 32 (≈ 107 µM) | 16 (≈ 53.4 µM) | 16 (≈ 53.4 µM) | 64 (≈ 214 µM) | 32 (≈ 107 µM) | 32 (≈ 107 µM) | 32 (≈ 107 µM) | 32 (≈ 107 µM) | 16 (≈ 53.4 µM) | – |
| C[C@@H](O)[C@H]1C(=O)N2C(C(=O)O)=C(S[C@@H]3CN[C@H](C(=O)N(C)C)C3)[C@H](C)[C@H]12 [MEROPENEM] | 16 (≈ 41.7 µM) | 32 (≈ 83.4 µM) | 57.9 | 32 (≈ 83.4 µM) | 16 (≈ 41.7 µM) | 32 (≈ 83.4 µM) | 32 (≈ 83.4 µM) | 16 (≈ 41.7 µM) | 64 (≈ 167 µM) | 16 (≈ 41.7 µM) | 16 (≈ 41.7 µM) | 16 (≈ 41.7 µM) | 16 (≈ 41.7 µM) | 32 (≈ 83.4 µM) | – |
| CCN1CCN(C(=O)N[C@@H](C(=O)N[C@@H]2C(=O)N3[C@@H]2SC(C)(C)[C@@H]3C(=O)O)c2ccccc2)C(=O)C1=O [PIPERACILLIN] | ≥ 128 | ≥ 128 | 63.2 | > 64 | > 64 | 32 (≈ 61.8 µM) | > 64 | > 64 | > 64 | > 64 | > 64 | > 64 | > 64 | > 64 | – |
| CC1(C)[C@H](C(=O)O)N2C(=O)C[C@H]2S1(=O)=O [SULBACTAM] | – | – | – | – | – | – | – | – | – | – | – | – | – | – | MIC [14]: 4 µg/mL (≈ 17.1 µM); MIC [15]: 4 µg/mL (≈ 17.1 µM); MIC [16]: 4 µg/mL (≈ 17.1 µM); MIC [17]: 4 µg/mL (≈ 17.1 µM); MIC [18]: 2 µg/mL (≈ 8.57 µM); MIC50 [19]: 2 µg/mL (≈ 8.57 µM); MIC90 [19]: 4 µg/mL (≈ 17.1 µM); MIC [20]: 4 µg/mL (≈ 17.1 µM); Activity [21]: 0%; MIC [22]: 2 µg/mL (≈ 8.57 µM); MIC [23]: 4 µg/mL (≈ 17.1 µM); MIC [24]: 4 µg/mL (≈ 17.1 µM); MIC [25]: 4 µg/mL (≈ 17.1 µM); MIC [26]: 2 µg/mL (≈ 8.57 µM) |
| CN(C)c1cc(NC(=O)CNC(C)(C)C)c(O)c2c1C[C@H]1C[C@H]3[C@H](N(C)C)C(O)=C(C(N)=O)C(=O)[C@@]3(O)C(O)=C1C2=O [TIGECYCLINE] | 0.12 (≈ 0.205 µM) | 0.5 (≈ 0.854 µM) | 0 | – | – | – | – | – | – | – | – | – | – | – | Activity [27]: >=8 ug ml-1; Activity [28]: <=2 ug ml-1; Activity [29]: 4 µg/mL |
| NC[C@H]1O[C@H](O[C@H]2[C@H](O)[C@@H](O[C@H]3O[C@H](CO)[C@@H](O)[C@H](N)[C@H]3O)[C@H](N)C[C@@H]2N)[C@H](N)C[C@@H]1O [TOBRAMYCIN] | 8 (≈ 17.1 µM) | ≥ 16 | 42.1 | – | – | – | – | – | – | – | – | – | – | – | – |
| COLISTIN | 1 | 2 | 0 | – | – | – | – | – | – | – | – | – | – | – | – |
| GENTAMICIN | 8 | > 16 | 52.6 | – | – | – | – | – | – | – | – | – | – | – | – |

Reference: ChEMBL document CHEMBL1255492, “Molecular characterization of beta-lactamase genes and their genetic structures in Acinetobacter genospecies 3 isolates in Taiwan” (2010)
